SMILES strings stand for the structures. Bounds are passed on as bounds.

The values below come from patent publication US5081121A, “4(1H)-quinolone derivatives” (priority 1988, dated 1992).

One assay deals with left atrial muscle. In words: Test Method 1: enhancement of contracting force of left atrial muscle extirpated from a guinea pig (electrically stimulated at 1 Hz). The class given is cell-based. To be noted: Cavia porcellus, Krebs-Henseleit solution 32° C.; for EC20: read-out: EC20 (molar concentration for enhancing the left atrial muscle contracting force to the level of 20%); for EC50: read-out: EC50 (molar concentration for enhancing the left atrial muscle contracting force to the level of 50%); for EC100: read-out: EC100 (molar concentration for enhancing the left atrial muscle contracting force to the level of 100%). The protocol:
(§1) The drug according to the present invention was evaluated with reference to the physiological activities by means of a method using an atrial muscle extirpated from a guinea pig.
(§2) Male guinea pigs having a body weight of 300-500 g were made swooned by striking his head and were bleeded to death. The heart was extirpated and the right and left atrial muscles were cut off. The tops of each atrial muscle were fixed with cerrefines. The muscle was suspended into an organ-bath in which a Krebs-Henseleit solution (at 32° C.) was filled, and a 95% O2 -5% CO2 gas was flown through the bath. The left atrial muscle was stimulated electrically at a frequency of 1 Hz to stabilize the contracting force of the left atrial muscle. Then, the compounds according to the present invention represented by the general formulae were added to the organ-bath. As for the right atrial muscle, after the pulsation was stabilized, the compounds according to the present invention were added in the organ-bath in the same manner as described above.
(§3) The compounds according to the present invention represented by the aforementioned general formulae enhanced the left atrial muscle contracting force dependent on their concentrations. The drug concentrations for enhancing the left atrial muscle contracting force to the levels of 20%, 50% and 100%, respectively are listed in Table 2. EC20, EC50 and EC100 indicate the molar concentration for enhancing the left atrial muscle contracting force to the levels of 20%, 50% and 100%, respectively. The enhancing rates of the pulsation of the right atrial muscle are also listed within parentheses. The minus values in parentheses indicate that the pulsation of the right atrial muscle is decreased.
(§4) As a control drug, theophylline ([…].

The next assay deals with right atrial muscle. In words: Test Method 1: enhancing rate of the pulsation of the right atrial muscle extirpated from a guinea pig. The class given is cell-based. To be noted: minus values: pulsation is decreased. The protocol: as §1, §2, §3, §4

In the case of `COc1c(O)ccc2[nH]ccc(=O)c12` [Compound 2, 6-hydroxy-5-methoxy-4(1H)-quinolone], in the assay with left atrial muscle, the EC20 is 490 µM and the EC50 came out at 871 µM. Besides, in the assay on right atrial muscle, the “enhancing rate of the pulsation of the right atrial muscle (in parentheses under EC20)” value (shortened to “enhancing rate … (in parentheses under EC20)”) was determined as 0.6% and the “enhancing rate of the pulsation of the right atrial muscle (in parentheses under EC50)” value (from here on “enhancing rate … (in parentheses under EC50)”) turned out to be 2.2%.

Regarding `C=CCn1c(C2CC2)cc(=O)c2cc(OC)c(OCC)cc21` [Compound 103, 1-allyl-2-cyclopropyl-7-ethoxy-6-methoxy-4(1H)-quinolone], in the assay on left atrial muscle, the EC20 was determined as 3 µM, the EC50 came to 34.3 µM and the EC100 was found to be 162 µM. In the assay with right atrial muscle, the “enhancing rate … (in parentheses under EC20)” value is recorded as -2.0%, the “enhancing rate of the pulsation of the right atrial muscle (in parentheses under EC100)” value (“enhancing rate … (in parentheses under EC100)” below) is listed as 1.2% and the “enhancing rate … (in parentheses under EC50)” value came to 0.5%.

Consider `COc1ccc2c(=O)cc[nH]c2c1O` [Compound 3, 8-hydroxy-7-methoxy-4(1H)-quinolone], for which, in the assay on left atrial muscle, the EC20 stood at 708 µM and the EC50 came out at 977 µM. In addition, in the assay on right atrial muscle, the “enhancing rate … (in parentheses under EC20)” value stood at 0.8% and the “enhancing rate … (in parentheses under EC50)” value worked out at 2.0%.

As to `CCOc1cc2c(cc1OC)c(=O)cc(-c1cccnc1)n2CC` [Compound 114, 7-ethoxy-1-ethyl-6-methoxy-2-(3-pyridyl)-4(1H)-quinolone], in the assay on left atrial muscle, the EC20 worked out at 6.46 µM, the EC50 amounted to 53.1 µM and the EC100 was found to be 1000 µM. In the assay on right atrial muscle, the “enhancing rate … (in parentheses under EC20)” value is listed as -1.8%, the “enhancing rate … (in parentheses under EC100)” value is listed as -1.3% and the “enhancing rate … (in parentheses under EC50)” value was -4.0%.

In the case of `COc1ccc(OC)c(/C=C/c2ccc3[nH]ccc(=O)c3c2)c1` [Compound 46, 6-[2-trans-(2,5-dimethoxyphenyl)vinyl]-4(1H)-quinolone], in the assay on left atrial muscle, the EC20 was 45.7 µM and the EC50 was determined as 162 µM. For the same compound, in the assay on right atrial muscle, the “enhancing rate … (in parentheses under EC20)” value was -1.0% and the “enhancing rate … (in parentheses under EC50)” value worked out at 3.5%.

Take `CCOc1cc2c(=O)ccn(CC)c2cc1OC` [Compound 49, 6-ethoxy-1-ethyl-7-methoxy-4(1H)-quinolone]: in the assay on left atrial muscle, the EC20 is 16.8 µM, the EC50 turned out to be 62.4 µM and the EC100 stood at 229 µM. In the assay with right atrial muscle, the “enhancing rate … (in parentheses under EC20)” value is -2.5%, the “enhancing rate … (in parentheses under EC100)” value was determined as 10.2% and the “enhancing rate … (in parentheses under EC50)” value is -1.0%.

In the case of `O=c1cc(-c2cccs2)[nH]c2ccccc12` [Compound 100, 2-(2-thienyl)-4(1H)-quinolone], in the assay with left atrial muscle, the EC20 is 5.43 µM and the EC50 amounted to 18.8 µM. In addition, in the assay with right atrial muscle, the “enhancing rate … (in parentheses under EC20)” value turned out to be 1.8% and the “enhancing rate … (in parentheses under EC50)” value worked out at 3.5%.

In the case of `O=C(c1ccccc1)c1cc(Cl)cc2c(=O)cc[nH]c12` [Compound 18, 8-benzoyl-6-chloro-4(1H)-quinolone], in the assay with left atrial muscle, the EC20 was 10 µM, the EC50 turned out to be 39.3 µM and the EC100 is 115 µM. For the same compound, in the assay with right atrial muscle, the “enhancing rate … (in parentheses under EC20)” value amounted to 0.2%, the “enhancing rate … (in parentheses under EC100)” value is 12.2% and the “enhancing rate … (in parentheses under EC50)” value is 9.2%.

`CCOC(=O)c1c[nH]c2c(OC)ccc(-c3ccccc3)c2c1=O` [Compound 37, 3-ethoxycarbonyl-8-methoxy-5-phenyl-4(1H)-quinolone]: in the assay with left atrial muscle, the EC20 is 1.58 µM, the EC50 came to 7.5 µM and the EC100 came to 37.2 µM. In the assay with right atrial muscle, the “enhancing rate … (in parentheses under EC20)” value is listed as -1.3%, the “enhancing rate … (in parentheses under EC100)” value is -5.0% and the “enhancing rate … (in parentheses under EC50)” value is recorded as -2.2%.

As to `COc1ccc(-c2ccccc2)c2c(=O)c(C(=O)O)c[nH]c12` [Compound 91, 3-carboxyl-8-methoxy-5-phenyl-4(1H)-quinolone], in the assay with left atrial muscle, the EC20 came to 13.3 µM, the EC50 was determined as 119 µM and the EC100 was determined as 750 µM. Besides, in the assay with right atrial muscle, the “enhancing rate … (in parentheses under EC20)” value was found to be 2.3% and the “enhancing rate … (in parentheses under EC50)” value came to 16.0%.

Consider `CCOC(=O)c1c[nH]c2c(OC)ccc(C)c2c1=O` [Compound 36, 3-ethoxycarbonyl-8-methoxy-5-methyl-4(1H)-quinolone], for which, in the assay with left atrial muscle, the EC20 was determined as 3.54 µM, the EC50 worked out at 25.7 µM and the EC100 stood at 77.6 µM. Also, in the assay on right atrial muscle, the “enhancing rate … (in parentheses under EC20)” value is 0.0%, the “enhancing rate … (in parentheses under EC100)” value was 8.9% and the “enhancing rate … (in parentheses under EC50)” value is recorded as 3.6%.

For `CCCCOc1cc2[nH]ccc(=O)c2cc1OC` [Compound 52, 7-n-butoxy-6-methoxy-4(1H)-quinolone], in the assay with left atrial muscle, the EC20 stood at 37.6 µM, the EC50 is 115 µM and the EC100 turned out to be 422 µM. For the same compound, in the assay on right atrial muscle, the “enhancing rate … (in parentheses under EC20)” value is reported as -1.0%, the “enhancing rate … (in parentheses under EC100)” value is listed as -20.0% and the “enhancing rate … (in parentheses under EC50)” value is given as -1.2%.

Turning to `CCOc1cc2c(cc1OC)c(=O)c(C(=O)O)cn2C` [Compound 92, 3-carboxyl-7-ethoxy-6-methoxy-1-methyl-4(1H)-quinolone], in the assay on left atrial muscle, the EC20 worked out at 4.73 µM and the EC50 was 37.6 µM. Moreover, in the assay on right atrial muscle, the “enhancing rate … (in parentheses under EC20)” value was 1.0% and the “enhancing rate … (in parentheses under EC50)” value came out at 6.0%.

In the case of `COc1cc(OCc2ccccc2)cc2c(=O)cc[nH]c12` [Compound 26, 6-benzyloxy-8-methoxy-4(1H)-quinolone], in the assay with left atrial muscle, the EC20 came out at 6.38 µM, the EC50 turned out to be 63 µM and the EC100 worked out at 305 µM. Further, in the assay with right atrial muscle, the “enhancing rate … (in parentheses under EC20)” value came out at 0.1%, the “enhancing rate … (in parentheses under EC100)” value is 8.7% and the “enhancing rate … (in parentheses under EC50)” value stood at 5.5%.

In the case of `COc1ccc2[nH]ccc(=O)c2c1OCc1ccccc1` [Compound 4, 5-benzyloxy-6-methoxy-4(1H)-quinolone], the EC20 in the assay with left atrial muscle was 1000 µM. The “enhancing rate … (in parentheses under EC20)” value with right atrial muscle came out at 0.7%.

Regarding `CCn1cc(C(=O)N2CCN(c3ccc([N+](=O)[O-])cc3)CC2)c(=O)c2cc(OC)c(OC)cc21` [Compound 110, 6,7-dimethoxy-1-ethyl-3-{1-[4-(4-nitrophenyl)piperazinyl]carbonyl}-4(1H)-quinolone], in the assay on left atrial muscle, the EC20 was found to be 105 µM and the EC50 came to 178 µM.

On to `CCn1cc(C(=O)N2CCN(c3ccccc3OC)CC2)c(=O)c2cc(C)ccc21` [Compound 108, 1-ethyl-3-{1-[4-(2-methoxyphenyl)piperazinyl]carbonyl}-6-methyl-4(1H)-quinolone], for which, in the assay with left atrial muscle, the EC20 was 44.2 µM and the EC50 was found to be 126 µM.

In the case of `COc1cc2[nH]c(-c3ccco3)cc(=O)c2cc1OC` [Compound 94, 6,7-dimethoxy-2-(2-furyl)-4(1H)-quinolone], in the assay on left atrial muscle, the EC20 is less than 100 µM, the EC50 was less than 100 µM and the EC100 is 417 µM.

For `N#CCc1ccc2[nH]ccc(=O)c2c1` [Compound 45, 6-cyanomethyl-4(1H)-quinolone], in the assay with left atrial muscle, the EC20 was less than 100 µM, the EC50 worked out at 274 µM and the EC100 was 510 µM.

Consider `CCOC(=O)c1cn(CC)c2c(C)ccc(OC(C)=O)c2c1=O` [Compound 82, 5-acetoxy-3-ethoxycarbonyl-1-ethyl-8-methyl-4(1H)-quinolone], for which, in the assay with left atrial muscle, the EC20 was less than 100 µM and the EC50 was determined as 168 µM.

Take `CCCn1cc(C(=O)O)c(=O)c2cc(OC)c(OCC)cc21` [Compound 93, 3-carboxyl-7-ethoxy-6-methoxy-1-n-propyl-4(1H)-quinolone]: in the assay on left atrial muscle, the EC20 was 376 µM and the EC50 was found to be 465 µM.

Turning to `COc1cc2c(=O)c(C(=O)O)cn(C)c2c(C)c1C` [Compound 89, 3-carboxyl-6-methoxy-1,7,8-trimethyl-4(1H)-quinolone], in the assay on left atrial muscle, the EC20 was less than 100 µM and the EC50 amounted to 657 µM.

`CCn1cc(C(=O)O)c(=O)c2c(C)cccc21` [Compound 87, 3-carboxyl-1-ethyl-5-methyl-4(1H)-quinolone]: in the assay with left atrial muscle, the EC20 was less than 100 µM and the EC50 was 327 µM.

As to `CCCCn1ccc(=O)c2cc(OC)c(OCC)cc21` [Compound 68, 1-n-butyl-7-ethoxy-6-methoxy-4(1H)-quinolone], in the assay with left atrial muscle, the EC20 is 2.82 µM and the EC50 came to 19.5 µM.

As to `CCOc1cc2c(=O)cc(C3CC3)[nH]c2cc1OC` [Compound 119, 2-cyclopropyl-6-ethoxy-7-methoxy-4(1H)-quinolone], in the assay with left atrial muscle, the EC20 worked out at 37.6 µM and the EC50 was determined as 84.1 µM.
